Read-outs that look alike come from different tables or passages of the source.
Legend:
[1] = log P by HPLC on reversed-phase columns (OECD Guideline 117), neutral range; type: physicochemical; conditions: for chromatographic logP: reversed-phase (C18) HPLC column
Myzus persicae [2] = assay: Myzus persicae spray test (MYZUPE), Chinese cabbage leaf discs; type: in vivo; conditions: for Emax at 100 g/ha / pest or weed control at 500 g/ha: Myzus persicae, foliar; for Emax at 100 g/ha: read-out: % efficacy; for pest or weed control at 500 g/ha: read-out: efficacy
Method: Myzus persicae—Spray Test
To produce a suitable preparation of active compound, 1 part by weight of active compound is dissolved using the specified parts by weight of solvent and made up with water containing an emulsifier concentration of 1000 ppm until the desired concentration is attained. To produce further test concentrations, the formulation is diluted with emulsifier-containing water.
Discs of Chinese cabbage leaves (Brassica pekinensis) infested by all stages of the green peach aphid (Myzus persicae) are sprayed with an active compound formulation of the desired concentration.
After 5 or 6 days, the efficacy in % is determined. 100% means that all the aphids have been killed; 0% means that no aphids have been killed.
Myzus persicae—Spray Test (MYZUPE)
Discs of Chinese cabbage leaves (Brassica pekinensis) infested by all stages of the green peach aphid (Myzus persicae) are sprayed with an active compound preparation of the desired concentration.
After the desired period of time, the efficacy in % is determined. 100% means that all the aphids have been killed; 0% means that no aphids have been killed.

Aphis gossypii = Aphis gossypii spray test on cotton plants; type: in vivo; conditions: for efficacy (kill): after 6 days, application rate 20 ppm, cotton plants
Method: Aphis gossypii—Spray Test
Solvent: 14 parts by weight of dimethylformamide
Emulsifier: alkylaryl polyglycol ether
To produce a suitable preparation of active compound, 1 part by weight of active compound is dissolved using the specified parts by weight of solvent and made up with water containing an emulsifier concentration of 1000 ppm until the desired concentration is attained. To produce further test concentrations, the formulation is diluted with emulsifier-containing water. If the addition of ammonium salts or/and penetrants is required, these are each added in a concentration of 1000 ppm to the formulation solution.
Cotton plants (Gossypium hirsutum) which are heavily infested by the cotton aphid (Aphis gossypii) are sprayed with an active compound formulation of the desired concentration.
After 6 days, the kill in % is determined. 100% means that all the aphids have been killed; 0% means that no aphids have been killed.

Myzus persicae [3] = assay: Myzus persicae oral test (MYZUPE O); type: in vivo; conditions: for Emax at 4 ppm / pest or weed control at 20 ppm / Emax at 0.8 ppm: Myzus persicae, po, 120 h; for Emax at 4 ppm / Emax at 0.8 ppm: read-out: % efficacy; for pest or weed control at 20 ppm: read-out: efficacy
Method: Solvent: 100 parts by weight of acetone
To produce a suitable preparation of active compound, 1 part by weight of active compound is dissolved using the specified parts by weight of solvent and made up with water until the desired concentration is attained.
50 μl of the active compound preparation are transferred into microtitre plates and made up to a final volume of 200 μl with 150 μl of IPL41 insect medium (33%+15% sugar). Subsequently, the plates are sealed with parafilm, which a mixed population of green peach aphids (Myzus persicae) within a second microtitre plate is able to puncture and imbibe the solution through it.
After 5 days, the efficacy in % is determined. 100% means that all the aphids have been killed; 0% means that no aphids have been killed.
Myzus persicae—Oral Test (MYZUPE O)
After 5 or 6 days (dat), the efficacy in % is determined. 100% means that all the aphids have been killed; 0% means that no aphids have been killed.

[4] = after 5 days, application rate 500 g/ha
[5] = after 5 days, application rate 20 ppm
[6] = after 6 days, application rate 500 g/ha
[7] = HPLC, neutral range pH 7.8, read-out: LogP-neutral

Row | Structure (SMILES) | LogP-neutral ([1]; pH 7.8) | efficacy (Myzus persicae [2]; [4]) | efficacy (Myzus persicae [3]; [5]) | also measured
1 | CN(C(=O)c1cnc(Oc2cccc(Cl)c2)n1C)c1cccnc1 [Example II-2] |  |  |  | chromatographic logP ([1]; pH 7.8, HPLC-MS, neutral, read-out: log P[n]): 2.1; Emax at 100 g/ha (Myzus persicae [2]; 144 h): 100%; pest or weed control at 500 g/ha (Myzus persicae [2]; 144 h): 100%; pest or weed control at 20 ppm (Aphis gossypii; Aphis gossypii, 144 h, read-out: efficacy (kill)): 100%; Emax at 4 ppm (Myzus persicae [3]): 100%; pest or weed control at 20 ppm (Myzus persicae [3]): 100%
2 | CC(C)Oc1ncc(C(=S)N(C)c2cccnc2)n1C [Example II-3] | 1.99 | 90% | 100% | efficacy (kill) (Aphis gossypii): 100%
3 | CC(C)Oc1ncc(C(=O)N(C)c2ccc[n+]([O-])c2)n1C [Example II-4] | 1.03 | 90% | 100% | efficacy (kill) (Aphis gossypii): 100%
4 | CCCOc1ncc(C(=O)N(C)c2cccnc2)n1C [Example II-5] | 1.52 |  | 90% | efficacy (Myzus persicae [2]; [6]): 90%; efficacy (kill) (Aphis gossypii): 100%
5 | CSCCOc1ncc(C(=O)N(C)c2cccnc2)n1C [Example II-6] | 1.45 |  | 100% | efficacy (Myzus persicae [2]; [6]): 90%; efficacy (kill) (Aphis gossypii): 99%
6 | COCCCOc1ncc(C(=O)N(C)c2cccnc2)n1C [Example II-7] | 1.27 |  | 100% | efficacy (Myzus persicae [2]; [6]): 100%; efficacy (kill) (Aphis gossypii): 100%
7 | CN(C(=O)c1cnc(OCc2cccnc2)n1C)c1cccnc1 [Example II-8] | 1.16 |  | 100% | efficacy (Myzus persicae [2]; [6]): 90%; efficacy (kill) (Aphis gossypii): 99%
8 | CN(C(=O)c1cnc(Oc2ccc(Cl)cc2)n1C)c1cccnc1 [Example II-9] |  |  | 100% | LogP-neutral ([1]; HPLC, neutral range pH 7.8): 2.09; efficacy (Myzus persicae [2]; [6]): 90%; efficacy (kill) (Aphis gossypii): 100%
9 | CCOc1ncc(C(=O)N(C)c2cccnc2)n1C [Example II-10] | 1.19 |  | 100% | efficacy (Myzus persicae [2]; [6]): 100%; efficacy (kill) (Aphis gossypii): 100%
10 | CN(C(=O)c1cnc(Oc2ccc(Cl)nc2)n1C)c1cccnc1 [Example II-68] |  | 90% | 100% | LogP-neutral ([1]; HPLC, neutral range pH 7.8): 1.45
11 | COc1ncc(Cl)cc1Oc1ncc(C(=O)N(C)c2cccnc2)n1C [Example II-70] | 2.02 | 90% | 100% | 
12 | CN(C(=O)c1cnc(Oc2cccc(C#N)c2)n1C)c1cccnc1 [Example II-72] |  | 90% | 100% | LogP-neutral ([1]; HPLC, neutral range pH 7.8): 1.52
13 | CCOc1cccc(Oc2ncc(C(=O)N(C)c3cccnc3)n2C)c1 [Example II-73] | 2.1 | 90% | 100% | 
14 | CC(=O)Nc1cccc(Oc2ncc(C(=O)N(C)c3cccnc3)n2C)c1 [Example II-74] | 1.25 | 90% | 100% | 
15 | CCc1cccc(Oc2ncc(C(=O)N(C)c3cccnc3)n2C)c1 [Example II-75] |  | 90% | 100% | LogP-neutral ([1]; HPLC, neutral range pH 7.8): 2.35
16 | CCCc1cccc(Oc2ncc(C(=O)N(C)c3cccnc3)n2C)c1 [Example II-77] | 2.66 | 100% | 90% | 
17 | CN(C(=O)c1cnc(Oc2cccc(C(F)(F)F)c2F)n1C)c1cccnc1 [Example II-78] | 2.39 | 100% | 100% | 
18 | Cc1cccc(Oc2ncc(C(=O)N(C)c3cccnc3)n2C)c1 [Example II-79] |  | 90% | 90% | LogP-neutral ([1]; HPLC, neutral range pH 7.8): 1.97
19 | CN(C(=O)c1cnc(Oc2cccc(S(C)(=O)=O)c2)n1C)c1cccnc1 [Example II-80] | 1.31 | 100% | 100% | 
20 | CN(C(=O)c1cnc(Oc2ccc(F)c(C(F)(F)F)c2)n1C)c1cccnc1 [Example II-83] | 2.42 | 90% |  | efficacy (Myzus persicae [3]; after 5 days, application rate 4 ppm): 100%
21 | CON=Cc1cccc(Oc2ncc(C(=O)N(C)c3cccnc3)n2C)c1 [Example II-84] | 2.04 | 90% | 100% | 
22 | Cc1ccc(Oc2ncc(C(=O)N(C)c3cccnc3)n2C)cc1Cl [Example II-85] | 2.45 | 100% | 90% | 
23 | CN(C(=O)c1cnc(Oc2cc(F)cc(C(F)(F)F)c2)n1C)c1cccnc1 [Example II-86] | 2.55 | 100% | 100% | 
24 | COc1cc(Cl)cc(Oc2ncc(C(=O)N(C)c3cccnc3)n2C)c1 [Example II-88] | 2.26 | 90% | 100% | 
25 | Cn1c(C(=O)N(c2cccnc2)C2CC2)cnc1Oc1ccc(Cl)nc1 [Example II-90] |  |  | 100% | LogP-neutral ([1]; HPLC, neutral range pH 7.8): 1.8; efficacy (Myzus persicae [2]; after 5 days, application rate 100 g/ha): 90%
26 | Cn1c(C(=O)N(c2cccnc2)C2CC2)cnc1Oc1cncc(C(F)(F)F)c1 [Example II-91] |  |  |  | chromatographic logP [1, 7]: 2.1; Emax at 100 g/ha (Myzus persicae [2]; 120 h, MYZUPE, 100 g of ai/ha, 5 dat): 90%; pest or weed control at 500 g/ha (Myzus persicae [2]; 120 h, after 5 days, application rate 500 g/ha): 90%; Emax at 0.8 ppm (Myzus persicae [3]; MYZUPE O, 0.8 ppm, 5 dat): 70%; Emax at 4 ppm (Myzus persicae [3]; MYZUPE O, 4 ppm, 5 dat): 90%; pest or weed control at 20 ppm (Myzus persicae [3]; [5]): 100%
27 | CCN(C(=O)c1cnc(Oc2cncc(C(F)(F)F)c2)n1C)c1cccnc1 [Example II-92] | 2.04 | 100% | 100% | 
28 | Cn1c(C(=O)N(c2cccnc2)C2CC2)cnc1Oc1cccc(Cl)c1 [Example II-93] |  | 90% | 100% | LogP-neutral ([1]; HPLC, neutral range pH 7.8): 2.41
29 | CCN(C(=O)c1cnc(Oc2ccc(F)nc2)n1C)c1cccnc1 [Example II-95] |  |  |  | chromatographic logP [1, 7]: 1.55; Emax at 100 g/ha (Myzus persicae [2]; 120 h): 100%; pest or weed control at 500 g/ha (Myzus persicae [2]; 120 h): 100%; Emax at 0.8 ppm (Myzus persicae [3]): 100%; Emax at 4 ppm (Myzus persicae [3]): 90%; pest or weed control at 20 ppm (Myzus persicae [3]): 100%
